Where “and” joins values, the source holds several entries; their conditions need not be identical. Equal entries are not always repeated. Toxic doses and inconclusive results are not listed.

Drawing on PubChem BioAssay AID328 (DTP/NCI, 2004), this text covers T/C for one compound.

In this assay the test system is BDF1 mice, P388 leukemia ip, median survival T/C. Briefly: NCI In Vivo Anticancer Drug Screen. Data for tumor model P388 Leukemia (intraperitoneal) in B6D2F1 (BDF1) mice. To be noted: endpoint: median survival time, higher = longer survival. The method in brief:
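Reported as T/C, where T is the survival measurement in dosed animals and C the same measurement in vehicle controls.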

`CCc1ccc(/C=C/c2ccc(O)c3ncccc23)[n+](C)c1`: the T/C is, setting by setting: (dose: 0.74 mg/kg/injection, schedule: Q01DX009 (ip), vehicle: saline) 100 % of control; (dose: 1.1 mg/kg/injection, schedule: Q01DX009 (ip), vehicle: saline) 109 % of control; (dose: 1.7 mg/kg/injection, schedule: Q01DX009 (ip), vehicle: Klucel (hydroxypropylcellulose) (HPC)) 108 % of control; (dose: 1.7 mg/kg/injection, schedule: Q01DX009 (ip), vehicle: saline) 150 % of control; (dose: 2.6 mg/kg/injection, schedule: Q01DX009 (ip), vehicle: saline) 160 % of control; (dose: 4.1 mg/kg/injection, schedule: Q01DX009 (ip), vehicle: Klucel (hydroxypropylcellulose) (HPC)) 122 % of control. The T/C (dose: 8.0 mg/kg/injection, schedule: Q01DX009 (ip), vehicle: Klucel (hydroxypropylcellulose) (HPC)) was 150 % of control; the T/C (dose: 8.0 mg/kg/injection, schedule: Q01DX009 (ip), vehicle: saline with Tween-80) was 170 % of control; the T/C (dose: 8.0 mg/kg/injection, schedule: Q04DX003 (ip), vehicle: saline) was 122 % of control; the T/C (dose: 10.56 mg/kg/injection, schedule: Q01DX009 (ip), vehicle: saline with Tween-80) was 154 % of control; the T/C (dose: 16.0 mg/kg/injection, schedule: Q01DX009 (ip), vehicle: Klucel (hydroxypropylcellulose) (HPC)) is 170 % of control; the T/C (dose: 16.0 mg/kg/injection, schedule: Q01DX009 (ip), vehicle: saline with Tween-80) was 159 % of control and 179 % of control. Besides, the T/C (dose: 16.5 mg/kg/injection, schedule: Q01DX009 (ip), vehicle: Klucel (hydroxypropylcellulose) (HPC)) was 160 % of control and 166 % of control; the T/C (dose: 24.0 mg/kg/injection, schedule: Q01DX009 (ip), vehicle: saline with Tween-80) is 158 % of control; the T/C (dose: 25.0 mg/kg/injection, schedule: Q01DX009 (ip), vehicle: Klucel (hydroxypropylcellulose) (HPC)) is 171 % of control and 185 % of control; the T/C (dose: 32.0 mg/kg/injection, schedule: Q01DX009 (ip), vehicle: saline with Tween-80) is 179 % of control.
